Assay results reported in publication PMC9964244, “Effects of Dimerization, Dendrimerization, and Chirality in p-BthTX-I Peptide Analogs on the Antibacterial Activity and Enzymatic Inhibition of the SARS-CoV-2 PL^pro Protein” (Pharmaceutics, 2023).
Values after ≈ are worked out from the molar mass of the structure shown. Values joined by “and” are separate entries in the source; they are usually repeats but may differ in a detail not shown here. Identical values can stand only once. Bridge positions count the residues as written; N and C are the ends. Peptide text beside a SMILES is read from it. I, II: the chains in the order shown.

Experiments:
SARS-CoV-2 = conditions: Vero cells; cited from earlier work
Text: In December 2019, the first case of viral infection with a new coronavirus was reported in China, which was later named severe acute respiratory syndrome coronavirus 2 (SARS-CoV-2), and the disease caused by this was named coronavirus-2019 or COVID-19 by the WHO. This disease has taken on great proportions, causing a pandemic scenario and great global concern. Even with the improvements in disease control, there is still a need for new, specific antiviral therapeutic options. As antimicrobial peptides also have antiviral action, the L-dimer, D-dimer and L-tetramer, in addition to ...

A. baumannii ATCC 19606 = experiment: MIC/MBC, broth microdilution and subculture on CA-MH agar; assay type: cell-based, Acinetobacter baumannii; conditions: triplicate, mode
Procedure: (§1) Bacterial isolates from the American Type Culture Collection (ATCC) were obtained from the Collection of Reference Bacteria on Health Surveillance, Oswaldo Cruz Foundation (FIOCRUZ) after phenotypic and molecular quality control and were registered at SISGEN under the number ADB556B. The minimum inhibitory concentration (MIC) was determined as previously described by Santos-Filho et al., 2021 [17], using the broth microdilution method. The MIC was the lowest concentration that inhibited microbial growth. […] MBC was defined as the lowest peptide concentration with no visible growth on the plate. […] The assay was performed in triplicate, and the values represent the mode of the obtained results.
(§2) Thus, to assess the relevance of the antimicrobial effect of p-Bth analogs, their Minimum Inhibitory Concentration (MIC) and Minimum Bactericidal Concentration (MBC) were analyzed against relevant bacteria. The evaluated strains were the Gram-positives: S. aureus ATCC 25923, S. epidermidis ATCC 35984, E. faecalis ATCC 29212, and E. faecium ATCC […] (Table 1); and the Gram-negatives: K. pneumoniae ATCC 700603, E. coli ATCC 25922, A. baumannii ATCC 19606, and P. aeruginosa ATCC 27853 (Table 2).

[1] = Carboxyfluorescein leakage, vesicle permeabilization; conditions: 80% POPE / 20% POPG vesicles; peptide 50 µM
Procedure: The permeabilization of lipid vesicles containing carboxyfluorescein was carried out using a spectrofluorometer model Fluorolog-3 FL3-122 from Horiba Jobin Yvon (Newark, NJ, USA) (dimers and tetramers) or in a spectrofluorometer model RF-1501 Shimadzu (Kyoto, Japan) (monomer). For RF-1501, the quantification of the fluorescence intensity was performed every 20 s. Two vesicle compositions were used: (1) 80% 1-palmitoyl-2-oleoyl-sn-glycero-3-phosphoethanolamine (POPE) and 20% 1-palmitoyl-2-oleoyl-sn-glycero- 3-phospho-(10-rac-glycerol) (POPG); and (2) 95% 1-palmitoyl-2-oleoyl-sn-glycero-3-phosphocholine (POPC) and 5% POPG. The percentage of leakage was obtained through the following equation:% release = (Fmeasured − Finitial)/(Ffinal − Finitial) × 100, where Ffinal is the average fluorescence value obtained after the addition of Triton, Finitial is the average of the initial values of the run before the addition of the peptide, and Fmeasured are the fluorescence values obtained at each point of the experiment.
Here, we evaluated two systems of membrane mimetics, including vesicles with a composition of 80% POPE and 20% POPG, and another with 95% POPC and 5% POPG. The first is widely used as a model of bacterial membranes, specifically of E. coli membrane. Membranes constituting POPC and POPG were used to mimic mammalian membranes due to the presence of choline-containing lipids in animal membranes.

erythrocytes = system: erythrocytes; parameters: method as in earlier work; conditions: at a concentration of 512 µg/mL; ref 17 (Santos-Filho et al., 2021); cited from earlier work
E. faecium ATCC 700221 = experiment: MIC/MBC, broth microdilution and subculture on CA-MH agar; assay type: cell-based, Enterococcus faecium; parameters: key to Act (antibacterial activity): Bc, bactericidal; Bs, bacteriostatic
Procedure: as §1, §2

P. aeruginosa ATCC 27853 = experiment: as above; assay type: cell-based, Pseudomonas aeruginosa; conditions: broth microdilution, triplicate, mode
Procedure: as §1, §2

S. aureus ATCC 25923 = experiment: as above; assay type: cell-based, Staphylococcus aureus; parameters: key to Act (antibacterial activity): Bc, bactericidal; Bs, bacteriostatic
Procedure: as §1, §2

SARS-CoV-2 PL^pro = molecular target: T1, SARS-CoV-2 PL^pro (Severe acute respiratory syndrome coronavirus 2, UniProt P0DTD1); conditions: PL^pro from SARS-CoV-2, ref 19 (Freire et al., 2021), cited from earlier work
T1 construct: made in house
Procedure: Table 3 PL^pro activity by peptide analogs of p-BThTX-I at the concentration of 10 μM and IC50 values. Representative concentration–response inhibition curves against PL^pro from SARS-CoV-2 are presented in the Supplementary Material (Figure S7). | column: Inhibition (%) at 10 µM; IC50 μM

E. faecalis ATCC 29212 = experiment: MIC/MBC, broth microdilution and subculture on CA-MH agar; assay type: cell-based; parameters: key to Act (antibacterial activity): Bc, bactericidal; Bs, bacteriostatic
Procedure: as §1, §2

E. coli ATCC 25922 = experiment: as above; assay type: cell-based; parameters: key to Act (antibacterial activity): Bc, bactericidal; Bs, bacteriostatic
Procedure: as §1, §2

[2] = system: S. epidermidis ATCC 35984; experiment: as above; assay type: cell-based; parameters: key to Act (antibacterial activity): Bc, bactericidal; Bs, bacteriostatic
Procedure: as §1, §2

[3] = system: K. pneumoniae ATCC 700603; experiment: as above; assay type: cell-based, Klebsiella pneumoniae; conditions: broth microdilution, triplicate, mode
Procedure: as §1, §2

[4] = MBC/MIC ratio >4 suggests bacteriostatic
[5] = broth microdilution, triplicate, mode
[6] = subculture on CA-MH agar, 37 °C, 24 h, triplicate, mode

## CC(C)C[C@H](NC(=O)[C@H](Cc1c[nH]cn1)NC(=O)[C@H](Cc1ccc(O)cc1)NC(=O)[C@H](CCCNC(=N)N)NC(=O)[C@H](Cc1ccc(O)cc1)NC(=O)[C@H](CCCCN)NC(=O)[C@@H](N)CCCCN)C(=O)N[C@@H](CCCCN)C(=O)N1CCC[C@H]1C(=O)N[C@@H](Cc1ccccc1)C(=O)NCCCC[C@H](NC(=O)[C@H](Cc1ccccc1)NC(=O)[C@@H]1CCCN1C(=O)[C@H](CCCCN)NC(=O)[C@H](CC(C)C)NC(=O)[C@H](Cc1c[nH]cn1)NC(=O)[C@H](Cc1ccc(O)cc1)NC(=O)[C@H](CCCNC(=N)N)NC(=O)[C@H](Cc1ccc(O)cc1)NC(=O)[C@H](CCCCN)NC(=O)[C@@H](N)CCCCN)C(N)=O [L-dimer, [des-Cys^11,Lys^12,Lys^13-(p-BthTX-I)2K]] (I: H-KKYRYHLKPFK-NH2 / II: H-KKYRYHLKPF; amide I:11-II:C; N-terminus assumed)
SARS-CoV-2
  percentage inhibition of SARS-CoV-2 infection: 27%
A. baumannii ATCC 19606; broth microdilution
  MIC: 89 µM and 256 μg/mL
A. baumannii ATCC 19606; subculture on CA-MH agar, 37 °C, 24 h
  MBC: >512 µg/mL
[1]
  carboxyfluorescein leakage, maximum percentage: 15%
erythrocytes
  hemolysis rate: below 5%
E. faecium ATCC 700221; [4]
  Act (antibacterial activity): Bs
E. faecium ATCC 700221; [5]
  MIC: 16 μg/mL and 5 µM
E. faecium ATCC 700221; [6]
  MBC: >64 µg/mL
P. aeruginosa ATCC 27853
  MIC: >512 μg/mL and >178 µM
S. aureus ATCC 25923; [4]
  Act (antibacterial activity): Bc
S. aureus ATCC 25923; [5]
  MIC: 32 μg/mL and 11 µM
S. aureus ATCC 25923; [6]
  MBC: 128 µg/mL (≈ 44.6 µM)
SARS-CoV-2 PL^pro; peptide 10 µM
  Inhibition (%) at 10 µM: 98.05 ± 1.62%
SARS-CoV-2 PL^pro
  IC50: 2400 ± 100 nM
E. faecalis ATCC 29212; [4]
  Act (antibacterial activity): Bc
E. faecalis ATCC 29212; [5]
  MIC: 22 µM and 64 μg/mL
E. faecalis ATCC 29212; [6]
  MBC: 128 µg/mL (≈ 44.6 µM)
E. coli ATCC 25922; [4]
  Act (antibacterial activity): Bc
E. coli ATCC 25922; [5]
  MIC: 32 μg/mL and 11 µM
E. coli ATCC 25922; [6]
  MBC: 64 µg/mL (≈ 22.3 µM)
[2]; [4]
  Act (antibacterial activity): Bc
[2]; [5]
  MIC: 8 μg/mL and 2 µM
[2]; [6]
  MBC: 16 µg/mL (≈ 5.58 µM)
[3]
  MIC: >128 μg/mL and >44 µM
